Laboratory results published in PubChem BioAssay (NCI).
Several values for one entry are separate records, joined by “and”; a condition that tells them apart may be missing. Equal entries are not always repeated.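 Step 1: Grow cells in 96-well plates. Step 2: Expose to compound for 48 hours at 5 concentrations. Step 3: Interpolate endpoints linearly; if unreached, use highest concentration. The concentration for 50% growth inhibition is given as GI50. TGI marks complete inhibition of growth.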 Where a SMILES comes first, the peptide text is derived from it. The star is where a group is joined. Boc = CC(C)(C)OC(=O)*; Bn = c1ccc(C*)cc1

Key:
Test in all cases: NCI anticancer screen, dose series, 48 h
[1] = system: HS 578T breast
[2] = system: T-47D breast
[3] = system: MDA-N
[4] = system: SK-MEL-5 melanoma
[5] = system: M14 melanoma
[6] = system: HL-60(TB) leukemia
[7] = system: HCT-116 colon
[8] = system: OVCAR-4 ovarian
[9] = system: OVCAR-5 ovarian
[10] = system: TK-10 renal
[11] = system: UO-31 renal
[12] = system: RXF 393 renal

| SMILES | TGI [1] | TGI [2] | TGI [3] | TGI [4] | TGI [5] | TGI [6] | TGI [7] | TGI [8] | TGI [9] | TGI [10] [µM] | TGI [11] [µM] | TGI [12] | GI50 [2] | GI50 [4] | GI50 [5] | GI50 [6] | GI50 [9] | GI50 [10] | GI50 [12] |
| --- | --- | --- | --- | --- | --- | --- | --- | --- | --- | --- | --- | --- | --- | --- | --- | --- | --- | --- | --- |
| C(#CC1(Nc2ccccc2)CCN(Cc2ccccc2)CC1)C1(Nc2ccccc2)CCN(Cc2ccccc2)CC1 | 37.2 µM | > 100 µM | > 56.2 µM | 18.3 µM | > 100 µM | 11.7 µM | 54.2 µM | 53.7 µM | > 56.2 µM | 39.4 | > 84.7 | 25.7 µM |  |  |  |  |  |  |  |
| CCCCCCCCCCOCCOCCOCCOCCCCC(O)CCCCCCCC1=C[C@H](C)OC1=O (some centres not stated) | 31.1 µM | 75 µM | 24.3 µM | 22.2 µM | 35.7 µM | 15.5 µM | 37.7 µM | 37.7 µM | 30.6 µM | 21.4 | 18.3 | 23.5 µM |  |  |  |  |  |  |  |
| CCC1CCC2c3c([nH]c4ccc(C)cc34)C3C(=O)N(N(C)C)C(=O)C3C2C1 (configuration not stated) | 33 µM | 41.2 µM | 4.52 µM | > 100 µM | > 100 µM | > 46.8 µM | 52.9 µM | > 100 µM | > 100 µM | > 100 | > 100 | 57.7 µM |  |  |  |  |  |  |  |
| O=C(Nc1cccc(C(=O)NCCCO)c1)/C(=C/c1ccccc1)NC(=O)c1ccccc1 | > 100 µM | > 100 µM | > 100 µM | > 100 µM | > 100 µM | > 100 µM | > 100 µM | > 100 µM | > 100 µM | > 100 | > 100 | > 100 µM |  |  |  |  |  |  |  |
| CNC(=O)C(CC(C)C)NC(=O)C(C)NC(=O)C(Cc1ccc(OCc2ccccc2)cc1)NC(=O)C(COCc1ccccc1)NC(=O)OC(C)(C)C (configuration not stated) (Boc-S(Bn)Y(Bn)AL-NHMe; configuration not given here) | 58.1 µM and 31.4 µM | > 74 µM and 27.1 µM | 30 µM and 30.9 µM | > 100 µM and 23.9 µM | > 100 µM and 28.2 µM | 30.2 µM and > 100 µM | 20.1 µM and 20.5 µM | 41.2 µM and 45.4 µM | > 100 µM and 51.6 µM | > 100 | > 100 | > 100 µM and 24.3 µM | 28.2 µM and 5.15 µM | 47.9 µM and 11.7 µM | 42.1 µM and 15 µM | 9.51 µM and 3.9 µM | > 73.2 µM and 21.2 µM | > 73.8 µM and 29.1 µM | 47.6 µM and 7.04 µM |
| Cc1cccc(C)c1N=Nc1ccc(O)c(CN(C)C)c1 | > 100 µM | 79.3 µM | > 100 µM | 25.2 µM | 58.1 µM | > 100 µM | > 100 µM | > 100 µM | > 100 µM | > 100 | > 100 | 46 µM |  |  |  |  |  |  |  |
| CC1=N[C@@](C)(C2CC3C=CC2C3=O)COC1=O (some centres not stated) | > 100 µM | > 100 µM | > 100 µM | > 100 µM | > 100 µM | > 100 µM | > 100 µM | > 100 µM | > 100 µM | > 100 | > 100 | > 100 µM |  |  |  |  |  |  |  |
| Cn1cc(-c2nnc(-c3ccc(Cl)cc3)[nH]c2=O)c2ccccc21 | > 100 µM | > 100 µM | 1.83 µM | > 43.7 µM | > 100 µM | > 24 µM | > 66.3 µM | > 100 µM | > 100 µM | 42.7 | > 47 | > 22.1 µM |  |  |  |  |  |  |  |
| Cc1cc2c(cc1Cl)SC(NNC1=NCCN1)=NS2(=O)=O | > 10 µM | > 10 µM | > 10 µM | > 10 µM | > 10 µM | > 10 µM | > 10 µM | > 10 µM | > 10 µM | > 10 | > 10 | > 10 µM |  |  |  |  |  |  |  |
| COc1cc(C2OC[C@@H]3C(=O)OC[C@H]23)cc(O)c1OC (some centres not stated) | > 100 µM | > 100 µM | > 100 µM | > 100 µM | > 100 µM | > 100 µM | > 100 µM | > 100 µM | > 100 µM | > 100 | > 100 | > 100 µM |  |  |  |  |  |  |  |
